What was measured:
[1] = test system: A549 cells; experiment: Measurement of PGE2-increasing activity in A549 cells (IL-1β stimulated, PGE2 quantified in supernatant); format: cell-based; details: Homo sapiens, 24 h; concentration of 1 µM of each compound; IL-1β treated A549 cells; read-out: Increased PGE2 production in A549 cells
How it was run: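 A549 cells grown 24 h in F12K with 10% FBS, then switched to serum-free medium with or without IL-1β and compound (0.1% DMSO final). After 24 h at 37 °C, 5% CO2, supernatant PGE2 quantified by immunoassay.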

[2] = target: T1, human 15-PGDH (Homo sapiens, UniProt P15428); experiment: Evaluation of 15-PGDH inhibitory activity (fluorescence enzyme assay, NAD+/PGE2); format: biochemical; details: human 15-PGDH enzyme, fluorescence Vmax
T1 construct: purchased R&D System 5660-DH
T1 sequence (P15428 1-266): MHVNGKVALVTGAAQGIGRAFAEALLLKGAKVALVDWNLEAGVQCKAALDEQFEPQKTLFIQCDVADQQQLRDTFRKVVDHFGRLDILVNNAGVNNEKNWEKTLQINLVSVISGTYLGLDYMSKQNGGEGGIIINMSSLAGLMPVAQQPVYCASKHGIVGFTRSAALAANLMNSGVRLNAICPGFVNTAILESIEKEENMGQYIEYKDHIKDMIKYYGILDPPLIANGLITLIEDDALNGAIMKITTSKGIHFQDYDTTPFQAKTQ
Procedure: 15-PGDH inhibition activity of Example compounds was measured as follows. 6.7 ng of human 15-PGDH (R&D System# 5660-DH) enzyme (10 µL) was added to a black 96 well plate, 60 µL of buffer (50 mM Tris-HCl, pH 7.5, 0.01% Tween 20) was added, and 10 µL of 200 µM β-Nicotinamide adenine dinucleotide sodium salt (Sigma, Cat# N0632-5G) was added. 10 µL of (10x) compound solution in DMSO was added and reacted for 10 minutes at room temperature.

SMILES	fold induction at 1 µM [1]	IC50 [2]
O=C(Nc1cccc(-c2cccc3c(C(=O)N4CCCCC4)cnn23)c1)c1cccnc1 [Example 95, N-(3-(3-(piperidine-1-carbonyl)pyrazolo[1,5-a]pyridin-7-yl)phenyl)nicotinamide]	> 1.5	≤ 100 nM
O=C1NC(=O)/C(=C/c2cccc(-c3cccc4c(C(=O)N5CCCCC5)cnn34)c2)S1 [Example 119, (Z)-5-(3-(3-(piperidine-1-carbonyl)pyrazolo[1,5-a]pyridin-7-yl)benzylidene)thiazolidine-2,4-dione]	> 1.5	≤ 100 nM
Cc1nc(-c2ccc(-c3cccc4c(C(=O)N5CCCCC5)cnn34)c(F)c2)no1 [Example 296, [7-[2-fluoro-4-(5-methyl-1,2,4-oxadiazol-3-yl)phenyl]pyrazolo[1,5-a]pyridin-3-yl]-(1-piperidyl)methanone]	> 1.5	≤ 100 nM
O=C(Nc1cncc(-c2cccc3c(C(=O)N4CCCCC4)cnn23)c1)c1cncnc1 [Example 334, N-(5-(3-(piperidine-1-carbonyl)pyrazolo[1,5-a]pyridin-7-yl)pyridin-3-yl)pyrimidine-5-carboxamide]	> 1.5	≤ 100 nM
N#Cc1cc(-c2cccc3c(C(=O)N4CCCCC4)cnn23)cc([N+](=O)[O-])c1 [Example 312, 3-nitro-5-(3-(piperidine-1-carbonyl)pyrazolo[1,5-a]pyridin-7-yl)benzonitrile]	> 1.5	≤ 100 nM
COCCC(=O)Nc1cncc(-c2cccc3c(C(=O)N4CCCCC4)cnn23)c1 [Example 197]	> 1.5	≤ 100 nM
O=C(NCC1CC1)c1ccc(-c2cccc3c(C(=O)N4CCCCC4)cnn23)cn1 [Example 80, N-(cyclopropylmethyl)-5-(3-(piperidine-1-carbonyl)pyrazolo[1,5-a]pyridin-7-yl)picolinamide]	> 1.5	≤ 100 nM
O=C(c1cnn2c(-c3ccc(F)nc3)cccc12)N1CCCCC1 [Example 19, (7-(6-fluoropyridin-3-yl)pyrazolo[1,5-a]pyridin-3-yl)(piperidin-1-yl)methanone]	> 1.5	≤ 100 nM
O=C(c1cncc(-c2cccc3c(C(=O)N4CCCCC4)cnn23)c1)N1CC(F)C1 [Example 192, (3-fluoroazetidin-1-yl)(5-(3-(piperidine-1-carbonyl)pyrazolo[1,5-a]pyridin-7-yl)pyridin-3-yl)methanone]	> 1.5	≤ 100 nM
O=C(c1cnn2c(-c3ccc(-c4noc(=O)[nH]4)nc3)cccc12)N1CCCCC1 [Example 117, 3-(5-(3-(piperidine-1-carbonyl)pyrazolo[1,5-a]pyridin-7-yl)pyridin-2-yl)-1,2,4-oxadiazol-5(4H)-one]	> 1.5	≤ 100 nM
O=C(c1cnn2c(-c3cc(-c4cnoc4)nc(N4CCOCC4)c3)cccc12)N1CCCCC1 [Example 366, (7-(2-(isoxazol-4-yl)-6-morpholinopyridin-4-yl)pyrazolo[1,5-a]pyridin-3-yl)(piperidin-1-yl)methanone]	> 1.5	≤ 100 nM
O=C(c1cccc(-c2cccc3c(C(=O)N4CCCCC4)cnn23)c1)N1CCNCC1 [Example 34, piperazin-1-yl(3-(3-(piperidine-1-carbonyl)pyrazolo[1,5-a]pyridin-7-yl)phenyl)methanone]	> 1.5	≤ 100 nM
Nc1cnn(-c2ccc(-c3cccc4c(C(=O)N5CCCCC5)cnn34)cn2)c1 [Example 344, (7-(6-(4-amino-1H-pyrazol-1-yl)pyridin-3-yl)pyrazolo[1,5-a]pyridin-3-yl)(piperidin-1-yl)methanone]	> 1.5	≤ 100 nM
O=C(Nc1cccc2c(C(=O)N3CCCCC3)cnn12)c1cncc(F)c1 [Example 241, 5-fluoro-N-[3-(piperidine-1-carbonyl)pyrazolo[1,5-a]pyridin-7-yl]pyridine-3-carboxamide]	> 1.5	≤ 100 nM
O=C(c1cnn2c(-c3ccc(N(Cc4ccccc4[N+](=O)[O-])C(=O)c4cccnc4)cc3)cccc12)N1CCCCC1 [Example 340, N-(2-nitrobenzyl)-N-(4-(3-(piperidine-1-carbonyl)pyrazolo|[1,5-a]pyridin-7-yl)phenyl)nicotinamide]	> 1.5	≤ 100 nM
CS(=O)(=O)Nc1ccc(-c2cccc3c(C(=O)N4CCCCC4)cnn23)cn1 [Example 112, N-(5-(3-(piperidine-1-carbonyl)pyrazolo[1,5-a]pyridin-7-yl)pyridin-2-yl)methanesulfonamide]	> 1.5	≤ 100 nM

SMILES	fold induction at 1 µM [1]	IC50 [2]
COCCNC(=O)c1cncc(-c2cccc3c(C(=O)N4CCCCC4)cnn23)c1 [Example 45, N-(2-methoxyethyl)-5-(3-(piperidine-1-carbonyl)pyrazolo[1,5-a]pyridin-7-yl)nicotinamide]	> 1.5	≤ 100 nM
O=C(c1cnn2c(Nc3cc(=O)[nH]cn3)cccc12)N1CCCCC1 [Example 235, 4-[[3-(piperidine-1-carbonyl)pyrazolo[1,5-a]pyridin-7-yl]amino]-1H-pyrimidin-6-one]	> 1.5	≤ 100 nM
CNC(=O)c1cncc(-c2cccc3c(C(=O)N4CCCCC4)cnn23)c1 [Example 40, N-methyl-5-(3-(piperidine-1-carbonyl)pyrazolo[1,5-a]pyridin-7-yl)nicotinamide]	> 1.5	≤ 100 nM
O=C(NCC1CC1)c1cncc(-c2cccc3c(C(=O)N4CCCCC4)cnn23)c1 [Example 46, N-(cyclopropylmethyl)-5-(3-(piperidine-1-carbonyl)pyrazolo[1,5-a]pyridin-7-yl)nicotinamide]	> 1.5	≤ 100 nM
CN1CCN(C(=O)c2ccc(-c3cccc4c(C(=O)N5CCCCC5)cnn34)cn2)CC1 [Example 83, (4-methylpiperazin-1-yl)(5-(3-(piperidine-1-carbonyl)pyrazolo[1,5-a]pyridin-7-yl)pyridin-2-yl)methanone]	> 1.5	≤ 100 nM
O=C(c1cnn2c(-c3ccc(Br)cc3)cccc12)N1CCCCC1 [Example 292, (7-(4-bromophenyl)pyrazolo[1,5-a]pyridin-3-yl)(piperidin-1-yl)methanone]	> 1.5	≤ 100 nM
CC(C)N1CCN(C(=O)c2ccc(-c3cccc4c(C(=O)N5CCCCC5)cnn34)cc2)CC1 [Example 68, (4-isopropylpiperazin-1-yl)(4-(3-(piperidine-1-carbonyl)pyrazolo[1,5-a]pyridin-7-yl)phenyl)methanone]	> 1.5	≤ 100 nM
Nc1nc(-c2ccc(-c3cccc4c(C(=O)N5CCCCC5)cnn34)cc2)no1 [Example 359, [7-[4-(5-amino-1,2,4-oxadiazol-3-yl)phenyl]pyrazolo[1,5-a]pyridin-3-yl]-(1-piperidyl)methanone]	> 1.5	≤ 100 nM
Cn1nc(N)c2cc(-c3cccc4c(C(=O)N5CCCCC5)cnn34)ccc21 [Example 261, [7-(3-amino-1-methyl-indazol-5-yl)pyrazolo[1,5-a]pyridin-3-yl]-(1-piperidyl)methanone]	> 1.5	≤ 100 nM
O=C(c1cnn2c(-c3ccc(-c4cn[nH]c4)cc3)cccc12)N1CCCCC1 [Example 346, 1-piperidyl-[7-[4-(1H-pyrazol-4-yl)phenyl]pyrazolo[1,5-a]pyridin-3-yl]methanone]	> 1.5	≤ 100 nM
NC(=O)Nc1cccc(-c2cccc3c(C(=O)N4CCCCC4)cnn23)c1 [Example 92, 1-(3-(3-(piperidine-1-carbonyl)pyrazolo[1,5-a]pyridin-7-yl)phenyl)urea]	> 1.5	≤ 100 nM
N#CCCNC(=O)c1ccc(-c2cccc3c(C(=O)N4CCCCC4)cnn23)cn1 [Example 85, N-(2-cyanoethyl)-5-(3-(piperidine-1-carbonyl)pyrazolo[1,5-a]pyridin-7-yl)picolinamide]	> 1.5	≤ 100 nM
O=C(Nc1cccnc1)c1ccc(-c2cccc3c(C(=O)N4CCCCC4)cnn23)cn1 [Example 87, 5-(3-(piperidine-1-carbonyl)pyrazolo[1,5-a]pyridin-7-yl)-N-(pyridin-3-yl)picolinamide]	< 1.5	≤ 100 nM
CN1CCC(NC(=O)c2ccc(-c3cccc4c(C(=O)N5CCCCC5)cnn34)cc2)CC1 [Example 65, N-(1-methylpiperidin-4-yl)-4-(3-(piperidine-1-carbonyl)pyrazolo[1,5-a]pyridin-7-yl)benzamide]	< 1.5	≤ 100 nM
CN(C)CCNC(=O)c1ccc(-c2cccc3c(C(=O)N4CCCCC4)cnn23)cn1 [Example 79, N-(2-(dimethylamino)ethyl)-5-(3-(piperidine-1-carbonyl)pyrazolo[1,5-a]pyridin-7-yl)picolinamide]	> 1.5	≤ 100 nM

Reference: patent EP4653437A2 (Innovo Therapeutics Inc., priority 2023, dated 2024)
